Test results published in ChEMBL document CHEMBL1201862, “PubChem BioAssay data set” (2004).
Active and inactive are the calls of the source.

What was measured:
NS3 = NS3 (Hepatitis C virus, UniProt A3EZJ3); test: PubChem AID 2173; parameters: species or system Hepacivirus hominis
[1] = target: T1, Heat shock factor protein 1 (Mus musculus, UniProt P38532); test: inhibition of MG132-induced HSE-luciferase signal, confirmation, cell-based, NIH3T3, luminescence, dose retest (AID 2382); assay type: functional;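 further: NIH3T3 fibroblasts with HSF1-driven luciferase reporter stressed by proteasome inhibitor MG132; luminescence from HSF1-driven luciferase expression after 8 hours of MG132 stress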
T1 sequence (P38532 whole entry): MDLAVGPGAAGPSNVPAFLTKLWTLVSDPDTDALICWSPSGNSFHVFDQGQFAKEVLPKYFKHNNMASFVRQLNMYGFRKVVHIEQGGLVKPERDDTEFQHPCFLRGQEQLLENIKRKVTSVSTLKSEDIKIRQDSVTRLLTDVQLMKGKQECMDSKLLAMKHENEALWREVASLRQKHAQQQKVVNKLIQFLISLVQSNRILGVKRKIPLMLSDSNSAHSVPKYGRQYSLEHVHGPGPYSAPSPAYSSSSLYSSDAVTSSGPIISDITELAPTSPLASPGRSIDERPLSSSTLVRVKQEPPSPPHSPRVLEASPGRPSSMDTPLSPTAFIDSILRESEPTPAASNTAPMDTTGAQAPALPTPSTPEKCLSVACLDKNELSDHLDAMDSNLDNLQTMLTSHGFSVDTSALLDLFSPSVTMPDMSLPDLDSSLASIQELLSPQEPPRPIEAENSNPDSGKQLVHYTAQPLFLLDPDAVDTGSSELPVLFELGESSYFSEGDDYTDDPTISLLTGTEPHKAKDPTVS

[2] = target: Luciferin 4-monooxygenase (Photinus pyralis, UniProt P08659); test: firefly luciferase enzyme inhibitors, dose response, biochemical, luminescence (AID 1891)
[3] = Luminescence Cell-Based Dose Confirmation HTS to Identify Inhibitors of Platelet Dense Granule Release. [Related pubchem assays: 1663 (Primary HTS), 1678 (Summary of Project)]; assay type: functional
[4] = Luminescence-based counterscreen assay for KLF5 inhibitors: dose response cell-based high throughput screening assay to identify cytotoxic compounds using the IEC-6 intestinal epithelial cell line. [Related pubchem assays: 1700 (Primary screen.), 1834 (Confirmation screen.), 1858 (Summary AID.), 1905 (Counterscreen.)]; assay type: functional
[5] = cytotoxicity in HEK-293T cells, dose response, cytotoxicity control for TCR NF-kB inhibitor project, luminescence, T-cell screen hits (AID 489026); assay type: functional, cell-based;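 further: cells exposed to compound about 14 hours before the viability readout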

Sequence of NS3 (A3EZJ3 whole entry): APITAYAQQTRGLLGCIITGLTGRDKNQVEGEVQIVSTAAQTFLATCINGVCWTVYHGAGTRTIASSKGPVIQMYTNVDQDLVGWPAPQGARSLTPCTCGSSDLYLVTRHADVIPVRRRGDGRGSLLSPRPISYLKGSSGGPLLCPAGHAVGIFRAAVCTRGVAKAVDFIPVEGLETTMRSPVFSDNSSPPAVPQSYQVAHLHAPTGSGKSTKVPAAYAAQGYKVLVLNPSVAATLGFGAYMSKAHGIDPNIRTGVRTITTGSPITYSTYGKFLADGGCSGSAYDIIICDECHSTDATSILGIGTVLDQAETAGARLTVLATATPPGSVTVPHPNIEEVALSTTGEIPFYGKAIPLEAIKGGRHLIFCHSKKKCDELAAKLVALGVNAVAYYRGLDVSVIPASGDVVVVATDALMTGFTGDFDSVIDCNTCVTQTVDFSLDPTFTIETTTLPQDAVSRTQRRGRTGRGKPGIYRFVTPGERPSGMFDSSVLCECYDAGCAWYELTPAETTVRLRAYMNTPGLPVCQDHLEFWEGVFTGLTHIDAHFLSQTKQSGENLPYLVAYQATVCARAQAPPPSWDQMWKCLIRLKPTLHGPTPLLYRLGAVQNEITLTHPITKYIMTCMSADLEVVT
Sequence of Luciferin 4-monooxygenase (P08659 whole entry): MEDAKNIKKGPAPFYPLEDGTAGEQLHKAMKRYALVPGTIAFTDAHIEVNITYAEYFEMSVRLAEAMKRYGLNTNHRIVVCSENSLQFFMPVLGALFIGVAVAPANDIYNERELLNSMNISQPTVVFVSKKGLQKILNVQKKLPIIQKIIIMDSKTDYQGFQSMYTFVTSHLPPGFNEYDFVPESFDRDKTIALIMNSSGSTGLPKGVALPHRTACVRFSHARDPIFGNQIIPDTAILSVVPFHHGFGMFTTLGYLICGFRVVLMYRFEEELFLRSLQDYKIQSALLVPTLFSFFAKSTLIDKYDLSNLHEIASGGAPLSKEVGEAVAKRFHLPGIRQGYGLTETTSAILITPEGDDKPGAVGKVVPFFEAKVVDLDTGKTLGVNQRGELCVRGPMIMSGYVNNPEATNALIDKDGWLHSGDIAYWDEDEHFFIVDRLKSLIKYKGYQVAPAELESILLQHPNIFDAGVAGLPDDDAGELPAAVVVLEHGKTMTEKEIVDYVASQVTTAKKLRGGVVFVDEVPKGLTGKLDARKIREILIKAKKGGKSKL

Row | SMILES | IC50 (NS3) | EC50 [1] | EC50 [2] | EC50 [3] | IC50 [4] | IC50 [5]
1 | NS(=O)(=O)c1ccc2nc(NC(=O)c3ccc4ncsc4c3)sc2c1 | 32 µM (not active) |  |  |  |  | 
2 | O=C(Nc1ccc(N2CCCCC2)cc1)c1ccccn1 |  | < 0.16 µM (active) | 1.06 µM (active) | 1.49 µM (active) | 13.3 µM (not active) | > 80 µM (inactive)
